Results from PubChem BioAssay AID248 (DTP/NCI, 2004).
Several values for one entry are separate records, joined by “and”; a condition that tells them apart may be missing. Equal values may be shown once. Inconclusive results and toxic doses are left out. No stated cut-off is given here; in the data, active means T/C of 150% or more; inactive means T/C below 125%.

Tested on: L1210 leukemia ip in BDF1 mice, survival T/C
Experiment: NCI In Vivo Anticancer Drug Screen. Data for tumor model L1210 Leukemia (intraperitoneal) in B6D2F1 (BDF1) mice
Details: endpoint: mean survival time, higher = longer survival
Method in brief: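 Each compound was tested against a transplantable tumor grown in mice. The endpoint was survival, with treated animals benchmarked against vehicle controls as a simple ratio.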

[1] = dose: 100.0 mg/kg/injection, schedule: Q01DX001 (ip), vehicle: Klucel (hydroxypropylcellulose) (HPC)
[2] = dose: 100.0 mg/kg/injection, schedule: Q04DX003 (ip), vehicle: Klucel (hydroxypropylcellulose) (HPC)
[3] = dose: 200.0 mg/kg/injection, schedule: Q01DX001 (ip), vehicle: Klucel (hydroxypropylcellulose) (HPC)
[4] = dose: 200.0 mg/kg/injection, schedule: Q04DX003 (ip), vehicle: Klucel (hydroxypropylcellulose) (HPC)
[5] = dose: 400.0 mg/kg/injection, schedule: Q04DX003 (ip), vehicle: Klucel (hydroxypropylcellulose) (HPC)
[6] = dose: 100.0 mg/kg/injection, schedule: Q01DX001 (ip), vehicle: carboxymethylcellulose (CMC)
[7] = dose: 400.0 mg/kg/injection, schedule: Q01DX001 (ip), vehicle: Klucel (hydroxypropylcellulose) (HPC)
[8] = dose: 100.0 mg/kg/injection, schedule: Q04DX003 (ip), vehicle: acetone
[9] = dose: 200.0 mg/kg/injection, schedule: Q04DX003 (ip), vehicle: acetone
[10] = dose: 100.0 mg/kg/injection, schedule: Q01DX001 (ip), vehicle: saline
[11] = dose: 200.0 mg/kg/injection, schedule: Q01DX001 (ip), vehicle: saline
[12] = dose: 400.0 mg/kg/injection, schedule: Q01DX001 (ip), vehicle: saline
[13] = dose: 100.0 mg/kg/injection, schedule: Q04DX003 (ip), vehicle: saline with Tween-80
[14] = dose: 200.0 mg/kg/injection, schedule: Q04DX003 (ip), vehicle: saline with Tween-80

Measured: T/C

CCN(CC)CCOc1ccccc1-c1nc2ccccc2s1
inactive: dose: 25.0 mg/kg/injection, schedule: Q01DX009 (ip), vehicle: Klucel (hydroxypropylcellulose) (HPC) 104 % of control | dose: 50.0 mg/kg/injection, schedule: Q01DX009 (ip), vehicle: Klucel (hydroxypropylcellulose) (HPC) 98 % of control | dose: 100.0 mg/kg/injection, schedule: Q01DX009 (ip), vehicle: Klucel (hydroxypropylcellulose) (HPC) 96 % of control and 108 % of control

O=C(C[n+]1ccccc1)N/N=C/c1cccc([N+](=O)[O-])c1
inactive: dose: 50.0 mg/kg/injection, schedule: Q01DX009 (ip), vehicle: saline with Tween-80 91 % of control

CC(=O)N(C=C(C#N)C#N)c1ccccc1
inactive: [1] 104 % of control | [2] 108 % of control | [3] 106 % of control | [4] 96 % of control | [5] 116 % of control

Cc1cc(-c2ccccc2)c2ccc3c(-c4ccccc4)cc(C)nc3c2n1
inactive: dose: 0.5 mg/kg/injection, schedule: Q01DX001 (ip), vehicle: carboxymethylcellulose (CMC) 105 % of control | dose: 1.0 mg/kg/injection, schedule: Q01DX001 (ip), vehicle: carboxymethylcellulose (CMC) 112 % of control | dose: 2.0 mg/kg/injection, schedule: Q01DX001 (ip), vehicle: carboxymethylcellulose (CMC) 95 % of control | dose: 4.0 mg/kg/injection, schedule: Q01DX001 (ip), vehicle: carboxymethylcellulose (CMC) 97 % of control | dose: 8.0 mg/kg/injection, schedule: Q01DX001 (ip), vehicle: carboxymethylcellulose (CMC) 100 % of control | dose: 10.0 mg/kg/injection, schedule: Q01DX001 (ip), vehicle: carboxymethylcellulose (CMC) 100 % of control | dose: 20.0 mg/kg/injection, schedule: Q01DX001 (ip), vehicle: carboxymethylcellulose (CMC) 95 % of control | dose: 80.0 mg/kg/injection, schedule: Q01DX001 (ip), vehicle: carboxymethylcellulose (CMC) 95 % of control | [6] 97 % of control

CCOC(=O)C(Cc1c[nH]c2ccccc12)C(=O)OCC
inactive: [2] 96 % of control | [4] 94 % of control | [5] 98 % of control

CC(C(O)c1ccccc1)C(O)(C(F)(F)Cl)C(F)(F)Cl (stereo not given)
inactive: [1] 102 % of control | [2] 98 % of control | [3] 102 % of control | [4] 88 % of control | [7] 107 % of control | [5] 114 % of control

O=S(=O)(OCC#CCOS(=O)(=O)c1ccc(Cl)c(Cl)c1)c1ccc(Cl)c(Cl)c1
inactive: dose: 12.5 mg/kg/injection, schedule: Q01DX009 (ip), vehicle: saline with Tween-80 90 % of control | dose: 25.0 mg/kg/injection, schedule: Q01DX009 (ip), vehicle: saline with Tween-80 90 % of control

O=c1oc2ccc(Cl)cc2c2c1OC(c1ccccc1)CN2 (stereo not given)
inactive: [1] 96 % of control | [3] 90 % of control | [7] 91 % of control

c1ccc2c(c1)ccc1[s+]cccc12
inactive: [8] 100 % of control | [9] 105 % of control

CSCCC(NC(=O)c1ccccc1)C(=O)O (stereo not given)
inactive: [2] 94 % of control | [4] 92 % of control | [5] 94 % of control

CC(=O)C(=O)O
inactive: [10] 110 % of control | [11] 95 % of control | [12] 87 % of control

CN1CC(CO)=CC2c3cccc4[nH]cc(c34)CC21 (stereo not given)
inactive: [10] 94 % of control

CCOC(=O)C(CCCCC(C(=O)OCC)C(=O)OCC)C(=O)OCC
inactive: [10] 103 % of control | [11] 109 % of control | [12] 105 % of control

O=C1C=CC(=O)N1c1ccc(Br)cc1 (tested in a mixture with another compound)
inactive: [8] 96 % of control | [9] 89 % of control | dose: 400.0 mg/kg/injection, schedule: Q04DX003 (ip), vehicle: acetone 91 % of control

CN(C)/C(N)=N/S(=O)(=O)c1ccc(C#N)cc1
inactive: [10] 88 % of control | [11] 96 % of control | [12] 94 % of control

CC(C)Nc1nc(Cl)nc(NC(C)C)n1
inactive: dose: 150.0 mg/kg/injection, schedule: Q01DX009 (ip), vehicle: Klucel (hydroxypropylcellulose) (HPC) 101 % of control | [4] 96 % of control | dose: 225.0 mg/kg/injection, schedule: Q01DX009 (ip), vehicle: Klucel (hydroxypropylcellulose) (HPC) 94 % of control | dose: 335.0 mg/kg/injection, schedule: Q01DX009 (ip), vehicle: Klucel (hydroxypropylcellulose) (HPC) 94 % of control | [5] 94 % of control

CCOC(=O)/C(=N\O)C(C)(C)c1ccnc2ccccc12
inactive: [13] 86 % of control | [14] 88 % of control | dose: 400.0 mg/kg/injection, schedule: Q04DX003 (ip), vehicle: saline with Tween-80 95 % of control

N#Cc1ccc([N+](=O)[O-])cc1O
inactive: dose: 50.0 mg/kg/injection, schedule: Q04DX003 (ip), vehicle: saline 96 % of control | [10] 98 % of control | dose: 100.0 mg/kg/injection, schedule: Q04DX003 (ip), vehicle: saline 95 % of control | [11] 104 % of control | dose: 200.0 mg/kg/injection, schedule: Q04DX003 (ip), vehicle: saline 96 % of control

Cc1cc(C)c2[nH]c(=O)cc(C)c2c1
inactive: dose: 100.0 mg/kg/injection, schedule: Q01DX001 (ip), vehicle: other 97 % of control and 98 % of control | dose: 200.0 mg/kg/injection, schedule: Q01DX001 (ip), vehicle: other 97 % of control and 95 % of control | dose: 400.0 mg/kg/injection, schedule: Q01DX001 (ip), vehicle: other 108 % of control and 95 % of control

CC(C)NC(=O)N(c1ccccc1)c1ccccc1
inactive: dose: 100.0 mg/kg/injection, schedule: Q01DX009 (ip), vehicle: gum acacia 104 % of control | dose: 100.0 mg/kg/injection, schedule: Q04DX003 (ip), vehicle: gum acacia 97 % of control | dose: 200.0 mg/kg/injection, schedule: Q01DX009 (ip), vehicle: gum acacia 111 % of control | dose: 200.0 mg/kg/injection, schedule: Q04DX003 (ip), vehicle: gum acacia 100 % of control | dose: 400.0 mg/kg/injection, schedule: Q01DX009 (ip), vehicle: gum acacia 101 % of control | dose: 400.0 mg/kg/injection, schedule: Q04DX003 (ip), vehicle: gum acacia 99 % of control

c1ccc(N2CCNCC2)nc1
inactive: dose: 5.0 mg/kg/injection, schedule: Q01DX009 (ip), vehicle: acetone 100 % of control | dose: 10.0 mg/kg/injection, schedule: Q01DX001 (ip), vehicle: acetone 96 % of control | dose: 10.0 mg/kg/injection, schedule: Q01DX009 (ip), vehicle: acetone 97 % of control | dose: 10.0 mg/kg/injection, schedule: Q04DX003 (ip), vehicle: saline 109 % of control | dose: 20.0 mg/kg/injection, schedule: Q01DX001 (ip), vehicle: acetone 95 % of control | dose: 20.0 mg/kg/injection, schedule: Q01DX009 (ip), vehicle: acetone 95 % of control | dose: 20.0 mg/kg/injection, schedule: Q04DX003 (ip), vehicle: saline 98 % of control | dose: 40.0 mg/kg/injection, schedule: Q01DX001 (ip), vehicle: acetone 106 % of control | dose: 40.0 mg/kg/injection, schedule: Q04DX003 (ip), vehicle: saline 101 % of control

O=[N+]([O-])c1ccc(Oc2cccc(C(F)(F)F)c2)c(Cl)c1
inactive: [1] 94 % of control | [3] 97 % of control | [7] 95 % of control

O=C(CCC(C(=O)c1ccccc1)c1ccccc1)c1ccccc1 (stereo not given)
inactive: dose: 100.0 mg/kg/injection, schedule: Q01DX009 (ip), vehicle: saline with Tween-80 104 % of control | dose: 200.0 mg/kg/injection, schedule: Q01DX009 (ip), vehicle: saline with Tween-80 87 % of control | dose: 400.0 mg/kg/injection, schedule: Q01DX009 (ip), vehicle: saline with Tween-80 88 % of control

CCN(CC)C(=O)C1C2C=CC(C2)C1C(=O)N(CC)CC (stereo not given)
inactive: [13] 98 % of control | [14] 98 % of control

OCC(CO)=C1c2ccccc2-c2ccccc21
inactive: dose: 100.0 mg/kg/injection, schedule: Q## X003 (ip), vehicle: acetone 102 % of control | dose: 200.0 mg/kg/injection, schedule: Q## X003 (ip), vehicle: acetone 101 % of control | dose: 400.0 mg/kg/injection, schedule: Q## X003 (ip), vehicle: acetone 104 % of control

Nc1ccc2c(c1)C(O)c1cc(Br)ccc1-2 (stereo not given)
inactive: [6] 108 % of control | dose: 200.0 mg/kg/injection, schedule: Q01DX001 (ip), vehicle: carboxymethylcellulose (CMC) 100 % of control | dose: 400.0 mg/kg/injection, schedule: Q01DX001 (ip), vehicle: carboxymethylcellulose (CMC) 105 % of control
